According to patent publication US9232796B2, “Herbicidal compositions comprising 4-amino-3-chloro-5-fluoro-6-(4-chloro-2-fluoro-3-methoxyphenyl) pyridine-2-carboxylic acid or a derivative thereof and acetyl-CoA carboxylase (ACCase) inhibitors” (DOW AGROSCIENCES LLC, priority 2012, dated 2016):

Legend:
ECHCG = assay: Example VI in-water applied ternary mixtures, greenhouse, transplanted paddy rice weeds; type: in vivo, Echinochloa crus-galli (L.) Beauv.; settings: Table 67, 100 gai/ha, 21 DAA
Experimental: (§1) Weed seeds or nutlets of the desired test plant species were planted in puddled soil (mud) prepared by mixing a shredded, non-sterilized mineral soil (50.5 percent silt, 25.5 percent clay, and 24 percent sand, with a pH of about 7.6 and an organic matter content of about 2.9 percent) and water at a 1:1 volumetric ratio. The prepared mud was dispensed in 365 mL aliquots into 16-ounce (oz.) non-perforated plastic pots with a surface area of 86.59 square centimeters (cm^2) leaving a headspace of 3 centimeters (cm) in each pot. Mud was allowed to dry overnight prior to planting or transplanting. Rice seeds were planted in Sun Gro MetroMix® 306 planting mixture, which typically has a pH of 6.0 to 6.8 and an organic matter content of about 30 percent, in plastic plug trays. Seedlings at the second or third leaf stage of growth were transplanted into 860 mL of mud contained in 32-oz. non-perforated plastic pots with a surface area of 86.59 cm^2 4 days prior to herbicide application. The paddy was created by filling the headspace of the pots with 2.5 to 3 cm of water. When required to ensure good germination and healthy plants, a fungicide treatment and/or other chemical or physical treatment was applied. The plants were grown for 4-22 days in a greenhouse with an approximate 14 hr. photoperiod which was maintained at about 29° C. during the day and 26° C. during the night. Nutrients were added as Osmocote® (19:6:12, N:P:K+minor nutrients) at 2 g per 16-oz. pot and 4 g per 32-oz. pot. Water was added on a regular basis to maintain the paddy flood, and supplemental lighting was provided with overhead metal halide 1000-Watt lamps as necessary. The plants were employed for testing when they reached the first through fourth true leaf stage.
(§2) Treatments consisted of the benzyl ester of 4-amino-3-chloro-5-fluoro-6-(4-chloro-2-fluoro-3-methoxy-phenyl)pyridine-2-carboxylic acid (Compound A), formulated as an SC (suspension concentrate), an ACCase inhibitor herbicide, and a third herbicidal component, each applied alone and in ternary combination. Forms of compound A were applied on an acid equivalent basis.
(§3) The ACCase inhibitor component was applied on an active ingredient basis and included cyhalofop-R-butyl formulated as Clincher® G and metamifop formulated as Metamifop EC. Other herbicidal components were applied on an active ingredient or acid equivalent basis depending on the compound and included penoxsulam formulated as Grasp® SC, bentazon sodium formulated as Basagran®, triclopyr […] (TEA) salt formulated as Grandstand® R, benzobicyclon formulated as Benzobicyclon, benfuresate formulated as Full Slot® WG, pyraclonil formulated as Pyraclon® Flowable, mefenacet (technical grade material), and pretilachlor (technical grade material).
(§4) Treatment requirements for each compound or herbicidal component were calculated based upon the rates being tested, the concentration of active ingredient or acid equivalent in the formulation, an application volume of 1 mL per component per pot, and an application area of 86.59 cm^2 per pot.
(§5) For formulated compounds, a measured amount was placed in an individual 100 or 200 mL glass vial and was dissolved in a volume of 1.25% (v/v) Agri-Dex® crop oil concentrate to obtain application solutions.
(§6) For technical grade compounds, a weighed amount was placed in an individual 100 to 200 mL glass vial and was dissolved in a volume of acetone to obtain concentrated stock solutions.
(§7) Applications were made by injecting with a pipetter appropriate amounts of the application solutions, into the aqueous layer of the paddy. Control plants were treated in the same manner with the solvent blank. Applications were made so that all treated plant material received the same concentrations of acetone and crop oil concentrate.
(§8) The treated plants and control plants were placed in a greenhouse as described above and water was added as needed to maintain a paddy flood. […]

ECHOR = assay: as above; type: in vivo, Echinochloa oryzoides (Ard.) Fritsch
Experimental: as §1, §2, §3, §4, §5, §6, §7, §8

FIMMI = assay: as above; type: in vivo, Fimbristylis miliacea (L.) Vahl; settings: Table 67, 50 gai/ha, 24 DAA
Experimental: as §1, §2, §3, §4, §5, §6, §7, §8

IPOHE = assay: Example I postemergence foliar-applied, greenhouse, direct seeded rice weeds; type: in vivo, Ipomoea hederacea Jacq.
Source text: (§9) Seeds or nutlets of the desired test plant species were planted in a soil matrix prepared by mixing a loam or sandy loam soil (e.g., 28.6 percent silt, 18.8 percent clay, and 52.6 percent sand, with a pH of about 5.8 and an organic matter content of about 1.8 percent) and calcareous grit in an 80 to 20 ratio. The soil matrix was contained in plastic pots with a volume of 1 quart and a surface area of 83.6 square centimeters (cm^2). When required to ensure good germination and healthy plants, a fungicide treatment and/or other chemical or physical treatment was applied. The plants were grown for 8-22 days in a greenhouse with an approximate 14 hr. photoperiod which was maintained at about 29° C. during the day and 26° C. during the night. Nutrients (Peters Excel® 15-5-15 5-Ca 2-Mg and iron chelate) were applied in the irrigation solution as needed and water was added on a regular basis. Supplemental lighting was provided with overhead metal halide 1000-Watt lamps as necessary. The plants were employed for testing when they reached the first through fourth true leaf stage.
(§10) Treatments consisted of the acid or esters of 4-amino-3-chloro-5-fluoro-6-(4-chloro-2-fluoro-3-methoxy-phenyl)pyridine-2-carboxylic acid (Compound A), each formulated as an SC (suspension concentrate), and various herbicidal components alone and in combination.
(§11) Other herbicidal components were applied on an acid equivalent (ae) or active ingredient (ai) basis and included acetyl coA carboxylase (ACCase)-inhibiting herbicides (cyclohexanedione and aryloxyphenoxypropionate chemical classes) cyhalofop-butyl formulated as Clincher® SF (285 gr ai/L EC), diclofop-methyl formulated as Hoelon® 3EC, fenoxaprop-p-ethyl+isoxadifen-ethyl formulated as RiceStar® HT (0.58 lb./gal EC), fenoxaprop-p-ethyl+mefenpyr diethyl formulated as Puma® IEC, metamifop formulated as Metamifop EC, haloxyfop-methyl formulated as Gallant Super®, fluazifop-p-butyl formulated as Fusilade® DX, quizalofop-p-ethyl formulated as Assure® II, profoxydim formulated as Aura® 20EC, clethodim applied as Intensity®, sethoxydim formulated as Poast®, and tralkoxydim formulated as Achieve®.
(§12) Treatment requirements were calculated based upon the rates being tested, the concentration of active ingredient or acid equivalent in the formulation, and a 12 mL application volume at a rate of 187 L/ha.
(§13) For treatments comprised of formulated compounds, measured amounts of compounds were placed individually in 25 mL glass vials and diluted in a volume of 1.25% (v/v) Agri-Dex® crop oil concentrated to obtain 12× stock solutions. […] Application solutions were prepared by adding an appropriate amount of each stock solution (e.g., 1 mL) and diluted to the appropriate final concentrations with the addition of 10 mL of an aqueous mixture of 1.25% (v/v) crop oil concentrate so that the final spray solutions contained 1.25+/−0.05% (v/v) crop oil concentrate.
(§14) All stock solutions and applications solutions were visually inspected for compound compatibility prior to application. Spray solutions were applied to the plant material with an overhead Mandel track sprayer equipped with a 8002E nozzles calibrated to deliver 187 L/ha over an application area of 0.503 m^2 at a spray height of 18 to 20 inches (46 to 50 cm) above average plant canopy height. Control plants were sprayed in the same manner with the solvent blank.
(§15) The treated plants and control plants were placed in a greenhouse as described above and watered by sub-irrigation to prevent wash-off of the test compounds. After approximately 3 weeks, the condition of the test plants as compared with that of the untreated plants was determined visually and scored on a scale of 0 to 100 percent where 0 corresponds to no injury or growth inhibition and 100 corresponds to complete kill. […]

SCPJU [1] = assay: as above; type: in vivo, Schoenoplectus juncoides (Roxb.) Palla
Source text: as §9, §10, §11, §12, §13, §14, §15

ECHCO = assay: as above; type: in vivo, Echinochloa colona (L.) Link
Source text: as §9, §10, §11, §12, §13, §14, §15

BRAPP = assay: as above; type: in vivo, Brachiaria platyphylla (Griseb.) Nash
Source text: as §9, §10, §11, §12, §13, §14, §15

SCPJU [2] = assay: Example II in-water applied, greenhouse, transplanted paddy rice weeds; type: in vivo, Schoenoplectus juncoides (Roxb.) Palla; settings: in-water
Experimental: as §1, with “When required to ensure good germination and healthy plants, a fungicide treatment and/or other chemical or physical treatment was applied.” left out
(§16) Treatments consisted of the acid or esters of 4-amino-3-chloro-5-fluoro-6-(4-chloro-2-fluoro-3-methoxy-phenyl)pyridine-2-carboxylic acid (compound A) each formulated as an SC (suspension concentrate) and various herbicidal components alone and in combination.
as §5
as §7, with “solutions, individually and sequentially,” for “solutions,”
(§17) The treated plants and control plants were placed in a greenhouse as described above and water was added as needed to maintain a paddy flood. After approximately 3 weeks the condition of the test plants as compared with that of the untreated plants was determined visually and scored on a scale of 0 to 100 percent where 0 corresponds to no injury or growth inhibition and 100 corresponds to complete kill.
(§18) Colby's equation was used to determine the herbicidal effects expected from the mixtures (Colby, S. R. 1967. Calculation of the synergistic and antagonistic response of herbicide combinations. Weeds 15:20-22.).
(§19) The following equation was used to calculate the expected activity of mixtures containing two active ingredients, A and B: Expected=A+B−(A×B/100)

CYPRO = assay: as above; type: in vivo, Cyperus rotundus L.
Experimental: as §1, with “When required to ensure good germination and healthy plants, a fungicide treatment and/or other chemical or physical treatment was applied.” left out
as §16, §5
as §7, with “solutions, individually and sequentially,” for “solutions,”
as §17, §18, §19

## CS(=O)(=O)c1ccc(C(=O)C2=C(Sc3ccccc3)C3CCC(C3)C2=O)c(Cl)c1 (stereo not shown) [Benzobicylon]
ECHCG
  Visual Weed Control (%) - 21 DAA ECHCG Obs: 20%
ECHOR; Table 67, 25 gai/ha
  Visual Weed Control (%) - 24 DAA ECHOR Obs: 10%
ECHOR; Table 67, 50 gai/ha
  Visual Weed Control (%) - 24 DAA ECHOR Obs: 10%
FIMMI
  Visual Weed Control (%) - 24 DAA FIMMI Obs: 68%

## COC(=O)[C@@H](C)Oc1ccc(Oc2ncc(C(F)(F)F)cc2Cl)cc1 [Haloxyfop-methyl, methyl(2R)-2-[4-[[3-chloro-5-(trifluoromethyl)-2-pyridinyl]oxy]phenoxy]propanoate]
IPOHE; 6.75 gai/ha
  Visual Weed Control (%) - 20 DAA IPOHE Obs: 0%
IPOHE; 13.5 gai/ha
  Visual Weed Control (%) - 20 DAA IPOHE Obs: 0%
IPOHE; 27 gai/ha
  Visual Weed Control (%) - 20 DAA IPOHE Obs: 0%
SCPJU [1]; 6.75 gai/ha
  Visual Weed Control (%) - 20 DAA SCPJU Obs: 0%
SCPJU [1]; 13.5 gai/ha
  Visual Weed Control (%) - 20 DAA SCPJU Obs: 0%
SCPJU [1]; 27 gai/ha
  Visual Weed Control (%) - 20 DAA SCPJU Obs: 0%
ECHCO; 6.75 gai/ha
  Visual Weed Control (%) - 20 DAA ECHCO Obs: 0%
ECHCO; 13.5 gai/ha
  Visual Weed Control (%) - 20 DAA ECHCO Obs: 0%
ECHCO; 27 gai/ha
  Visual Weed Control (%) - 20 DAA ECHCO Obs: 0%
BRAPP; 6.75 gai/ha
  Visual Weed Control (%) - 20 DAA BRAPP Obs: 0%
BRAPP; 13.5 gai/ha
  Visual Weed Control (%) - 20 DAA BRAPP Obs: 0%
SCPJU [2]; 13.5 gai/ha
  Visual Weed Control (%) - 20 DAA SCPJU Obs: 0%
SCPJU [2]; 27 gai/ha
  Visual Weed Control (%) - 20 DAA SCPJU Obs: 0%
CYPRO; 13.5 gai/ha
  Visual Weed Control (%) - 20 DAA CYPRO Obs: 0%
CYPRO; 27 gai/ha
  Visual Weed Control (%) - 20 DAA CYPRO Obs: 0%
